# Laboratory results reported in patent US8269015B2, “4-azetidinyl-1-heteroaryl-cyclohexane antagonists of CCR2” (Janssen Pharmaceutica N.V., priority 2009, dated 2012).
# Target: T1, CCR2 (Homo sapiens, UniProt P41597)
# T1 construct: host or cells: THP-1 (human monocytic cell line)
# T1 sequence (P41597 1-360 isoform P41597-2): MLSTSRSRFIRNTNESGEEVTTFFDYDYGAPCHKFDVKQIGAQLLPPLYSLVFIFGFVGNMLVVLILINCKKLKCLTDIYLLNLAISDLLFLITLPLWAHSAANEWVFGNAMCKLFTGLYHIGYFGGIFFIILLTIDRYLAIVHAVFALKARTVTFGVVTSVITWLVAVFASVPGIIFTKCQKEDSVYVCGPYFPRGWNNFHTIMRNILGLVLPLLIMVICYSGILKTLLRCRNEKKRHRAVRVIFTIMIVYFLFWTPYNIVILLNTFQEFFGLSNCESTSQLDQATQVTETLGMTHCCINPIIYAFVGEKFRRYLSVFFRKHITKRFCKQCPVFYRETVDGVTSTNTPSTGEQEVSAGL
# Test: MCP-1 Receptor Binding Assay in THP-1 Cells (125I labeled MCP-1)
# Conditions: 0.5 nM 125I labeled MCP-1, 2 hours at 30° C., read-out: Inhibition of MCP-1 Binding IC50, CCR2 Binding
# Method: Compounds of the invention were subjected to various representative biological tests. […] MCP-1 Receptor Binding Assay in THP-1 Cells
# Human monocytic cell line THP-1 cells were obtained from American Type Culture Collection (Manassas, Va., USA). […] The cell density was maintained […].
# 1 μM cold MCP-1 was used for nonspecific binding.
row,Structure (SMILES),IC50 [nM]
1,"O=C(CNC(=O)c1cccc(C(F)(F)F)c1)NC1CN(C2CCC(c3ncccc3NC(=O)C(F)(F)F)CC2)C1 (stereo not drawn) [Example 17, N-[(1-{4-[3-(2,2,2-Trifluoro-acetylamino)-pyridin-2-yl]-cyclohexyl}-azetidin-3-ylcarbamoyl)-methyl]-3-trifluoromethyl-benzamide]",920
2,"O=C(CNC(=O)c1cccc(C(F)(F)F)c1)NC1CN(C2CCC(c3nc4c(c(=O)[nH]3)CCCC4)CC2)C1 (mixture of isomers) [Example 61, N-({1-[4-(4-Oxo-3,4,5,6,7,8-hexahydro-quinazolin-2-yl)-cyclohexyl]-azetidin-3-ylcarbamoyl}-methyl)-3-trifluoromethyl-benzamide]",4000
3,"CS(=O)(=O)Nc1cccnc1C1CCC(N2CC(NC(=O)CNC(=O)c3cccc(C(F)(F)F)c3)C2)CC1 (stereo not drawn) [Example 19, N-({1-[4-(3-Methanesulfonylamino-pyridin-2-yl)-cyclohexyl]-azetidin-3-ylcarbamoyl}-methyl)-3-trifluoromethyl-benzamide]",1900
4,"Nc1ccnc(C2CCC(N3CC(NC(=O)CNC(=O)c4cccc(C(F)(F)F)c4)C3)CC2)c1 (stereo not drawn) [Example 33, N-({1-[4-(4-Amino-pyridin-2-yl)-cyclohexyl]-azetidin-3-ylcarbamoyl}-methyl)-3-trifluoromethyl-benzamide]",250
5,"O=C(CNC(=O)c1cccc(C(F)(F)F)c1)NC1CN(C2CCC(c3cncc(O)c3)CC2)C1 (stereo not drawn) [Example 5, N-({1-[4-(5-Hydroxy-pyridin-3-yl)-cyclohexyl]-azetidin-3-ylcarbamoyl}-methyl)-3-trifluoromethyl-benzamide]",260
6,"Nc1ccncc1C1CCC(N2CC(NC(=O)CNC(=O)c3cccc(C(F)(F)F)c3)C2)CC1 (single isomer, unassigned) [Example 27a, N-({1-[4-(4-Amino-pyridin-3-yl)-cyclohexyl]-azetidin-3-ylcarbamoyl}-methyl)-3-trifluoromethyl-benzamide]",2700
7,"O=C(CNC(=O)c1cccc(C(F)(F)F)c1)NC1CN(C2CCC(c3ccc(=O)n(CCO)c3)CC2)C1 (stereo not drawn) [Example 43, N-[(1-{4-[1-(2-Hydroxy-ethyl)-6-oxo-1,6-dihydro-pyridin-3-yl]-cyclohexyl}-azetidin-3-ylcarbamoyl)-methyl]-3-trifluoromethyl-benzamide]",330
8,"COc1cc(C2CCC(N3CC(NC(=O)CNC(=O)c4cccc(C(F)(F)F)c4)C3)CC2)ccn1 (stereo not drawn) [Example 7, N-({1-[4-(2-Methoxy-pyridin-4-yl)-cyclohexyl]-azetidin-3-ylcarbamoyl}-methyl)-3-trifluoromethyl-benzamide]",32

# The remaining lines, values ahead:
row,IC50 [nM],Structure (SMILES)
1,340,"COC(=O)Nc1ncc(C2CCC(N3CC(NC(=O)CNC(=O)c4cccc(C(F)(F)F)c4)C3)CC2)s1 (single isomer, unassigned) [Example 51a, [5-(4-{3-[2-(3-Trifluoromethyl-benzoylamino)-acetylamino]-azetidin-1-yl}-cyclohexyl)-thiazol-2-yl]-carbamic acid methyl ester]"
2,1200,"CNc1ccncc1C1CCC(N2CC(NC(=O)CNC(=O)c3cccc(C(F)(F)F)c3)C2)CC1 (stereo not drawn) [Example 29a, N-({1-[4-(4-Methylamino-pyridin-3-yl)-cyclohexyl]-azetidin-3-ylcarbamoyl}-methyl)-3-trifluoromethyl-benzamide]"
3,170,"O=C(CNC(=O)c1cccc(C(F)(F)F)c1)NC1CN(C2CCC(c3ccc(=O)[nH]c3)CC2)C1 (single isomer, unassigned) [Example 37a, N-({1-[4-(6-Oxo-1,6-dihydro-pyridin-3-yl)-cyclohexyl]-azetidin-3-ylcarbamoyl}-methyl)-3-trifluoromethyl-benzamide]"
4,61,"Cc1cc(C2CCC(N3CC(NC(=O)CNC(=O)c4cccc(C(F)(F)F)c4)C3)CC2)cn(C)c1=O (single isomer, unassigned) [Example 45a, N-({1-[4-(1,5-Dimethyl-6-oxo-1,6-dihydro-pyridin-3-yl)-cyclohexyl]-azetidin-3-ylcarbamoyl}-methyl)-3-trifluoromethyl-benzamide]"
